Key:
Type in all cases: in vivo
Setaria viridis (SETVI) = assay: Herbicidal pre-emergence action, 1280 g/ha (Table A8); details: visual grading after ca. 3 weeks vs untreated controls
Description: (§1) Seeds of mono- and dicotyledonous weed plants were sown in plastic pots (double sowings with one species of mono- and one species of dicotyledonous weed plants per pot), in sandy loam, and covered with soil. The compounds according to the invention, formulated in the form of wettable powders (WP) or as emulsifiable concentrates (EC), were applied to the surface of the covering soil as an aqueous suspension or as an emulsion, with the addition of 0.5% of an additive, at an application rate of 600 litres of water per hectare (converted). Following treatment, the pots were placed in a greenhouse and kept under optimum growth conditions for the test plants. The visual grading of the damage to the test plants was carried out after ca. 3 weeks in comparison to untreated controls (herbicidal effect in percent (%): 100% effect=plants have died, 0% effect=as control plants). Tables A1 to A11 below, show the effects of selected compounds of the general formula (I) according to Table 1 on various harmful plants and an application rate corresponding to 1280 g/ha obtained by the experimental procedure mentioned above.

[1] = tested on: Amaranthus retroflexus (AMARE); assay: Herbicidal post-emergence action, 320 g/ha, AMARE; details: visual grading after ca. 3 weeks
Description: (§2) Seeds of mono- and dicotyledonous weed plants were sown in plastic pots (double sowings with one species of mono- and one species of dicotyledonous weed plants per pot), in sandy loam, covered with soil and grown under controlled growth conditions. 2 to 3 weeks after sowing, the test plants were sprayed in the single-leaf stage. The compounds according to the invention, formulated in the form of wettable powders (WP) or as emulsifiable concentrates (EC), were sprayed onto the green plant parts as an aqueous suspension or as an emulsion, with the addition of 0.5% of an additive, at an application rate of 600 litres of water per hectare (converted). The test plants were placed in the greenhouse for ca. 3 weeks under optimum growth conditions, and then the effect of the preparations was assessed visually in comparison with untreated controls (herbicidal effect in percent (%): 100% effect=plants have died, 0% effect=as control plants).
(§3) Tables D1 to D8 below, show the effects of selected compounds of the general formula (I) according to Table 1 on various harmful plants using an application rate corresponding to 320 g/ha obtained by the experimental procedure mentioned above.

Kochia scoparia (KCHSC) [2] = assay: Herbicidal post-emergence action, 320 g/ha, KCHSC; details: visual grading after ca. 3 weeks
Description: as §2, §3

[3] = tested on: Amaranthus retroflexus (AMARE); assay: Herbicidal post-emergence action, 1280 g/ha, AMARE; details: visual grading vs untreated controls
Description: as §2
(§4) Tables B1 to B11 below, show the effects of selected compounds of the general formula (I) according to Table 1 on various harmful plants using an application rate corresponding to 1280 g/ha obtained by the experimental procedure mentioned above.

[4] = tested on: Abutilon theophrasti (ABUTH); assay: Herbicidal post-emergence action, 1280 g/ha (Table B1); details: visual assessment after ca. 3 weeks vs untreated controls
Description: as §2, with “plants). Tables B1 to B11 below, show the effects of selected compounds of the general formula (I) according to Table 1 on various harmful plants using an application rate corresponding to 1280 g/ha obtained by the experimental procedure mentioned above.” for “plants).”

[5] = tested on: Amaranthus retroflexus (AMARE); assay: Herbicidal pre-emergence action, 1280 g/ha (Table A11); details: visual grading after ca. 3 weeks vs untreated controls
Description: as §1

Stellaria media (STEME) [6] = assay: Herbicidal pre-emergence action, 1280 g/ha (Table A9); details: visual grading after ca. 3 weeks vs untreated controls
Description: as §1

[7] = tested on: Matricaria inodora (MATIN); assay: Herbicidal pre-emergence action, 1280 g/ha (Table A6); details: visual grading after ca. 3 weeks vs untreated controls
Description: as §1

Veronica persica (VERPE) [8] = assay: Herbicidal post-emergence action, 1280 g/ha, VERPE; details: visual grading vs untreated controls
Description: as §2, §4

Lolium rigidum (LOLRI) [9] = assay: Herbicidal post-emergence action, 1280 g/ha (Table B5); details: visual assessment after ca. 3 weeks vs untreated controls
Description: as §2, with “plants). Tables B1 to B11 below, show the effects of selected compounds of the general formula (I) according to Table 1 on various harmful plants using an application rate corresponding to 1280 g/ha obtained by the experimental procedure mentioned above.” for “plants).”

Lolium rigidum (LOLRI) [10] = assay: Herbicidal pre-emergence action, 1280 g/ha (Table A5); details: visual grading after ca. 3 weeks vs untreated controls
Description: as §1

[11] = tested on: Matricaria inodora (MATIN); assay: Herbicidal post-emergence action, 1280 g/ha (Table B6); details: visual assessment after ca. 3 weeks vs untreated controls
Description: as §2, with “plants). Tables B1 to B11 below, show the effects of selected compounds of the general formula (I) according to Table 1 on various harmful plants using an application rate corresponding to 1280 g/ha obtained by the experimental procedure mentioned above.” for “plants).”

Veronica persica (VERPE) [12] = assay: Herbicidal post-emergence action, 320 g/ha, VERPE; details: visual grading after ca. 3 weeks
Description: as §2, §3

Stellaria media (STEME) [13] = assay: Herbicidal post-emergence action, 1280 g/ha (Table B9); details: visual assessment after ca. 3 weeks vs untreated controls
Description: as §2, with “plants). Tables B1 to B11 below, show the effects of selected compounds of the general formula (I) according to Table 1 on various harmful plants using an application rate corresponding to 1280 g/ha obtained by the experimental procedure mentioned above.” for “plants).”

Kochia scoparia (KCHSC) [14] = assay: Herbicidal post-emergence action, 1280 g/ha (Table B4); details: visual assessment after ca. 3 weeks vs untreated controls
Description: as §2, with “plants). Tables B1 to B11 below, show the effects of selected compounds of the general formula (I) according to Table 1 on various harmful plants using an application rate corresponding to 1280 g/ha obtained by the experimental procedure mentioned above.” for “plants).”

[15] = tested on: Matricaria inodora (MATIN); assay: Herbicidal post-emergence action, 320 g/ha, MATIN; details: visual grading after ca. 3 weeks
Description: as §2, §3

Stellaria media (STEME) [16] = assay: Herbicidal post-emergence action, 320 g/ha, STEME; details: visual grading after ca. 3 weeks
Description: as §2, §3

Kochia scoparia (KCHSC) [17] = assay: Herbicidal pre-emergence action, 1280 g/ha (Table A4); details: visual grading after ca. 3 weeks vs untreated controls
Description: as §1

Lolium rigidum (LOLRI) [18] = assay: Herbicidal pre-emergence action, 320 g/ha (Table C2); details: visual grading after ca. 3 weeks vs untreated controls
Description: as §1, with “Tables C1” for “Tables A1”, “to C6” for “to A11”, “plants using” for “plants and”, “to 320” for “to 1280”

Stellaria media (STEME) [19] = assay: Herbicidal pre-emergence action, 320 g/ha, STEME; details: visual grading after ca. 3 weeks
Description: as §1, with “plants).” for “plants). Tables A1 to A11 below, show the effects of selected compounds of the general formula (I) according to Table 1 on various harmful plants and an application rate corresponding to 1280 g/ha obtained by the experimental procedure mentioned above.”
Tables C1 to C6 below, show the effects of selected compounds of the general formula (I) according to Table 1 on various harmful plants using an application rate corresponding to 320 g/ha obtained by the experimental procedure mentioned above.

[20] = tested on: Abutilon theophrasti (ABUTH); assay: Herbicidal pre-emergence action, 1280 g/ha (Table A1); details: visual grading after ca. 3 weeks vs untreated controls
Description: as §1

[21] = tested on: Abutilon theophrasti (ABUTH); assay: Herbicidal post-emergence action, 320 g/ha, ABUTH; details: visual grading after ca. 3 weeks
Description: as §2, §3

Lolium rigidum (LOLRI) [22] = assay: Herbicidal post-emergence action, 320 g/ha, LOLRI; details: visual grading after ca. 3 weeks
Description: as §2, §3

| SMILES | herbicidal effect SETVI (Setaria viridis (SETVI)) [%] | herbicidal effect AMARE [1] [%] | herbicidal effect AMARE [3] [%] | herbicidal effect ABUTH [4] [%] | herbicidal effect AMARE [5] [%] | herbicidal effect STEME (Stellaria media (STEME) [6]) [%] | herbicidal effect MATIN [7] [%] | herbicidal effect VERPE (Veronica persica (VERPE) [8]) [%] | herbicidal effect LOLRI (Lolium rigidum (LOLRI) [9]) [%] | herbicidal effect LOLRI (Lolium rigidum (LOLRI) [10]) [%] | herbicidal effect MATIN [11] [%] | herbicidal effect VERPE (Veronica persica (VERPE) [12]) [%] | herbicidal effect STEME (Stellaria media (STEME) [13]) [%] | herbicidal effect KCHSC (Kochia scoparia (KCHSC) [14]) [%] | herbicidal effect MATIN [15] [%] | herbicidal effect STEME (Stellaria media (STEME) [16]) [%] | herbicidal effect KCHSC (Kochia scoparia (KCHSC) [17]) [%] | herbicidal effect ABUTH [21] [%] | herbicidal effect LOLRI (Lolium rigidum (LOLRI) [22]) [%] | further results |
| --- | --- | --- | --- | --- | --- | --- | --- | --- | --- | --- | --- | --- | --- | --- | --- | --- | --- | --- | --- | --- |
| CCOC(=O)Oc1c(C)nn(C)c(=O)c1Oc1ccccc1C(F)(F)F [Example I-009, [1,3-dimethyl-6-oxo-5-[2-(trifluoromethyl)phenoxy]pyridazin-4-yl] ethyl carbonate] | 100 | – | – | – | – | – | – | – | – | – | – | – | – | – | – | – | – | – | – | – |
| CCOC(=O)Oc1c(C)nn(C)c(=O)c1Oc1ccccc1OC(F)(F)F [Example I-013] | – | 90 | 90 | 100 | 90 | 100 | 100 | 100 | 100 | 100 | 100 | 90 | 100 | 100 | 90 | 100 | 90 | – | – | herbicidal effect KCHSC (Kochia scoparia (KCHSC) [2]): 100% |
| Cc1nn(C)c(=O)c(Oc2cc(F)ccc2C2CC2)c1O [Example I-046] | – | 90 | 100 | 100 | 90 | 100 | 90 | 100 | 100 | 100 | 100 | 90 | 100 | 90 | 90 | 90 | – | 100 | – | herbicidal effect LOLRI (Lolium rigidum (LOLRI) [18]): 90%; herbicidal effect STEME (Stellaria media (STEME) [19]): 100%; herbicidal effect ABUTH [20]: 90% |
| CCOC(=O)Oc1c(C)nn(C)c(=O)c1Oc1cccc(F)c1C1CC1 [Example I-058] | – | 90 | 90 | 100 | – | 90 | – | 90 | 100 | 90 | 100 | – | 90 | 100 | – | 90 | 90 | 90 | 90 | herbicidal effect KCHSC (Kochia scoparia (KCHSC) [2]): 90% |
| Cc1nn(C)c(=O)c(Oc2cc(Cl)ccc2C2CC2)c1O [Example I-071] | 90 | 90 | 100 | 100 | – | 90 | 100 | 90 | – | 100 | – | – | 100 | – | – | 90 | – | 100 | – | herbicidal effect ABUTH [20]: 90% |
| CC(=O)Oc1c(C)nn(C)c(=O)c1Oc1ccccc1OC(F)F [Example I-081] | – | 90 | 100 | 100 | – | 90 | 90 | 100 | 90 | 90 | 100 | – | 90 | 100 | 90 | 90 | – | 90 | 90 | – |
| CCOC(=O)Oc1c(C)nn(C)c(=O)c1Oc1c(F)cccc1C1CC1 [Example I-085] | – | 90 | 100 | 100 | – | 90 | – | 100 | 100 | 100 | 100 | 90 | 100 | 100 | – | 100 | – | 90 | 90 | – |
| Cc1nn(C)c(=O)c(Oc2cc(F)c(F)cc2C2CC2)c1O [Example I-101] | 90 | 90 | 100 | 100 | 100 | 100 | 100 | 100 | 90 | 100 | 90 | 90 | 100 | 90 | – | 90 | 100 | 90 | – | herbicidal effect LOLRI (Lolium rigidum (LOLRI) [18]): 90% |
